# Test results taken from paper PMC10377586 (Biomolecules, 2023).
# Tests used:
# DPPH antioxidant assay = assay type: physicochemical; details: compound at 50 µM
# From the text: The 2,2-diphenyl-1-picrylhydrazyl (DPPH) assay was used to determine the antioxidant properties of selected compounds using ascorbic acid, trolox, and quercetin as references. […] From a structural point of view, 21 and 22 share a common pyrimido[2,1-f]purinedione core with propyl or butyl substituents at the N1- and N3-position. Compounds 11i and 11l, containing hexyl or phenoxyethyl as N7-substituents, were the only structures in the groups of bicyclic xanthine derivatives that lacked antioxidant activity in the DPPH assay.
# Antioxidant properties of considered structures were evaluated in DPPH test. The assay utilizes a stable free radical 2,2-diphenyl-1-picrylhydrazyl (DPPH). DPPH has a deep violet color in solution and strong absorption band at 520 nm. The antioxidant activity of the tested compounds was defined by their ability to induce the formation of the reduced form of DPPH. Upon reduction, DPPH color turned pale yellow, which manifested by decreased sample absorption at 520 nm and was measured in conducted experiments using EnSpire microplate reader (PerkinElmer). Antioxidant activity of xanthine derivatives and reference compounds was tested in triplicate at 50 µM concentration and normalized to the activity of reference radical scavenger—quercetin.
# Figure 2 Antioxidant properties of xanthine derivatives evaluated in the DPPH test. All compounds were tested at 50 µM concentration. Results were normalized to the antioxidant activity measured for quercetin. ASC, ascorbic acid; TLX, trolox; QCT, quercetin.
Structure (SMILES),melting point [°C],Antioxidative Activity [% of Quercetin Response at 50 µM ± SD] (DPPH antioxidant assay)
"Cn1c(=O)c2c(nc(NCCc3ccc(O)c(O)c3)n2CCc2ccccc2)n(C)c1=O (hydrate or solvate) [Compound 11k, 8-((3,4-Dihydroxyphenethyl)amino)-1,3-dimethyl-7-phenethyl-3,7-dihydro-1H-purine-2,6-dione]",180 to 182,–
"Cn1c(=O)c2c(nc(NCCc3ccc(O)c(O)c3)n2Cc2ccccc2)n(C)c1=O (hydrate or solvate) [Compound 11j, 7-Benzyl-8-((3,4-dihydroxyphenethyl)amino)-1,3-dimethyl-3,7-dihydro-1H-purine-2,6-dione]",214 to 216,–
"Cc1c(C)c2c(c(C)c1O)CCC(C)(C(=O)O)O2 (centres unmarked) [Trolox, reference compound]",–,73 ± 1 % of Quercetin Response
"O=C1O[C@H]([C@@H](O)CO)C(O)=C1O [Ascorbic acid, reference compound]",–,78 ± 1 % of Quercetin Response
"CC(C)Cn1c(NCCc2ccc(O)c(O)c2)nc2c1c(=O)n(C)c(=O)n2C (hydrate or solvate) [Compound 11f, 8-((3,4-Dihydroxyphenethyl)amino)-7-isobutyl-1,3-dimethyl-3,7-dihydro-1H-purine-2,6-dione]",201 to 203,–
